Measurements reported in US20230227466A1, “SUBSTITUTED THIENOPYRIMIDINES THAT INTERACT WITH THE RAS SUPERFAMILY FOR THE TREATMENT OF CANCERS, INFLAMMATORY DISEASES, RASOPATHIES, AND FIBROTIC DISEASE” (SHY Therapeutics, LLC, priority 2020, published 2023).
Where two headings read alike, the source gives them in different places.

Tests used:
Rho-A = Rho-A (Homo sapiens, UniProt P61586); experiment: Ras GTP binding domain inhibition assay (labeled-GTP competition, cell-free); parameters: made in house
Outline: (§1)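 His-tagged protein immobilized on Ni-coated wells overnight at 4 °C. Compounds (20 μM single point or serial dilution for IC50) incubated 3 h at RT, ± Sos (residues 556-1049, 10-30 μg/mL) during the final hour. Cy3- or Cy5-GTP (100 nM) then added for 45 min; bound label read by fluorescence after washing.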

KRas wild type = KRas wild type (Homo sapiens, UniProt P01116); experiment: as above; parameters: made in house
Outline: as §1

Rac-1 = Rac-1 (Homo sapiens, UniProt P63000); experiment: as above; parameters: made in house
Outline: as §1

[1] = tested on: MIA-PaCa-2 pancreatic cancer cell line (KRAS G12C); experiment: Cell proliferation assay (CellTiter 96 Aqueous One); assay type: cell-based; settings: Homo sapiens; for IC50: MIA PaCa-2, MIA PaCa-2; for inhibition at 10 µM: MIA PaCa-2, read-out: % inh cell proliferation (10 μM) in MIA PaCa-2
Outline: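 Read-out is MTS-based viability (CellTiter 96 Aqueous One) after 2–4 days of compound exposure at 37 °C in 10% FBS with 0.3% DMSO.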

KRas G12D mutant = target: T1, KRas G12D mutant (Homo sapiens, UniProt P01116, G12D); experiment: Ras GTP binding domain inhibition assay (labeled-GTP competition, cell-free)
T1 construct: made in house
Outline: as §1

KRas G12C mutant = target: T2, KRas G12C mutant (Homo sapiens, UniProt P01116, G12C); experiment: as above
T2 construct: made in house
Outline: as §1

KRas Q61H mutant = target: T3, KRas Q61H mutant (Homo sapiens, UniProt P01116, Q61H); experiment: as above
T3 construct: made in house
Outline: as §1

[2] = without SOS, read-out: Rho-A: % inh.
[3] = with SOS, read-out: KRas wild type + SOS: % inh.
[4] = without SOS, read-out: KRas wild type: % inh.
[5] = without SOS, read-out: Rac-1: % inh.
[6] = with SOS, read-out: KRas G12D mutant + SOS: % inh.
[7] = without SOS, read-out: KRas G12D mutant: % inh.
[8] = with SOS, read-out: KRas G12C mutant + SOS: % inh.
[9] = without SOS, read-out: KRas G12C mutant: % inh.
[10] = with SOS, read-out: KRas Q61H mutant + SOS: % inh.
[11] = without SOS, read-out: KRas Q61H mutant: % inh.
[12] = with SOS, read-out: Rho-A + SOS: % inh.
[13] = with SOS, read-out: Rac-1 + SOS: % inh.

Compound | inhibition at 20 µM (Rho-A; [2]) [%] | inhibition at 20 µM (KRas wild type; [3]) [%] | inhibition at 20 µM (KRas wild type; [4]) [%] | inhibition at 20 µM (Rac-1; [5]) [%] | IC50 [1] [µM] | inhibition at 20 µM (KRas G12D mutant; [6]) [%] | inhibition at 20 µM (KRas G12D mutant; [7]) [%] | inhibition at 20 µM (KRas G12C mutant; [8]) [%] | inhibition at 20 µM (KRas G12C mutant; [9]) [%] | inhibition at 20 µM (KRas Q61H mutant; [10]) [%] | inhibition at 20 µM (KRas Q61H mutant; [11]) [%] | inhibition at 20 µM (Rho-A; [12]) [%] | inhibition at 20 µM (Rac-1; [13]) [%] | IC50 (KRas Q61H mutant; with SOS) [µM] | inhibition at 10 µM [1] [%]
COCC1CCN(c2nc(-c3nccn3C)nc3sc(-c4ccn(C(C)C)n4)c(-c4ccccc4)c23)C1 (racemic) [Compound 76, Rac-6-(1-isopropyl-1H-pyrazol-3-yl)-4-(3-(methoxymethyl)pyrrolidin-1-yl)-2-(1-methyl-1H-imidazol-2-yl)-5-phenylthieno[2,3-d]pyrimidine] | 26 to 50 | 51 to 75 | 51 to 75 | 1 to 25 | < 1 | 26 to 50 | 51 to 75 | 0 | 1 to 25 | 51 to 75 | 26 to 50 |  |  |  | 76 to 100
CO[C@H]1CC[C@@H](Nc2nc(C(=O)N3CCCC3)nc3sccc23)C1 (racemic) [Compound 25, Rac-(4-(((1R,3S)-3-Methoxycyclopentyl)amino)thieno[2,3-d]pyrimidin-2-yl)(pyrrolidin-1-yl)methanone] | 0 | 0 | 0 | 0 | > 10 | 0 | 0 | 0 | 0 | 0 | 0 | 0 | 0 |  | 1 to 25
COc1ccnc(Nc2nc(-c3nccn3C)nc3sc(-c4ccn(C(C)C)n4)c(C)c23)n1 [Compound 68, 6-(1-Isopropyl-1H-pyrazol-3-yl)-N-(4-methoxypyrimidin-2-yl)-5-methyl-2-(1-methyl-1H-imidazol-2-yl)thieno[2,3-d]pyrimidin-4-amine] | 76 to 100 | 76 to 100 | 76 to 100 | 76 to 100 | 1 to 4.99 | 76 to 100 | 76 to 100 | 51 to 75 | 76 to 100 | 51 to 75 | 76 to 100 |  |  |  | 76 to 100
CO[C@H]1CC[C@@H](Nc2nc(-c3nccn3C)nc3sc(-c4cc[nH]n4)c(-c4ccccc4)c23)C1 (racemic) [Example 1, Rac-N-((1R,3S)-3-methoxycyclopentyl)-2-(1-methyl-1H-imidazol-2-yl)-5-phenyl-6-(1H-pyrazol-3-yl)thieno[2,3-d]pyrimidin-4-amine] | 1 to 25 | 1 to 25 | 0 | 0 | > 10 | 0 | 0 | 1 to 25 | 1 to 25 | 1 to 25 | 1 to 25 | 0 | 1 to 25 | > 10 | 0
CO[C@H]1CC(Nc2nc(-c3nccn3C)nc3sc(-c4ccn(C(C)C)n4)c(C)c23)C[C@@H]1OC (racemic) [Compound 44, rac-N-((3S,4S)-3,4-Dimethoxycyclopentyl)-6-(1-isopropyl-1H-pyrazol-3-yl)-5-methyl-2-(1-methyl-1H-imidazol-2-yl)thieno[2,3-d]pyrimidin-4-amine] | 76 to 100 | 76 to 100 | 76 to 100 | 76 to 100 | 1 to 4.99 | 76 to 100 | 51 to 75 | 76 to 100 | 76 to 100 | 76 to 100 | 76 to 100 | 76 to 100 | 76 to 100 |  | 76 to 100

Continued, in another order:

inhibition at 20 µM (Rho-A; [2]) [%] | inhibition at 20 µM (KRas wild type; [3]) [%] | inhibition at 20 µM (KRas wild type; [4]) [%] | inhibition at 20 µM (Rac-1; [5]) [%] | IC50 [1] [µM] | inhibition at 20 µM (KRas G12D mutant; [6]) [%] | inhibition at 20 µM (KRas G12D mutant; [7]) [%] | inhibition at 20 µM (KRas G12C mutant; [8]) [%] | inhibition at 20 µM (KRas G12C mutant; [9]) [%] | inhibition at 20 µM (KRas Q61H mutant; [10]) [%] | inhibition at 20 µM (KRas Q61H mutant; [11]) [%] | inhibition at 20 µM (Rho-A; [12]) [%] | inhibition at 20 µM (Rac-1; [13]) [%] | IC50 (KRas Q61H mutant; with SOS) [µM] | Compound | inhibition at 10 µM [1] [%]
51 to 75 | 76 to 100 | 51 to 75 | 26 to 50 | 5 to 10 | 26 to 50 | 0 | 51 to 75 | 1 to 25 | 51 to 75 | 51 to 75 |  |  |  | CO[C@H]1CCCN(c2nc(-c3nccn3C)nc3sc(-c4ccn(C(C)C)n4)c(C)c23)C1 [Compound 49, (S)-6-(1-Isopropyl-1H-pyrazol-3-yl)-4-(3-methoxypiperidin-1-yl)-5-methyl-2-(1-methyl-1H-imidazol-2-yl)thieno[2,3-d]pyrimidine] | 76 to 100
51 to 75 | 51 to 75 | 51 to 75 | 76 to 100 | 5 to 10 | 26 to 50 | 0 | 51 to 75 | 51 to 75 | 26 to 50 | 51 to 75 | 76 to 100 | 76 to 100 |  | COCC1COCCN1c1nc(-c2nccn2C)nc2sc(-c3ccn(C(C)C)n3)c(C)c12 (racemic) [Compound 41, rac-4-(6-(1-Isopropyl-1H-pyrazol-3-yl)-5-methyl-2-(1-methyl-1H-imidazol-2-yl)thieno[2,3-d]pyrimidin-4-yl)-3-(methoxymethyl)morpholine] | 51 to 75
76 to 100 | 51 to 75 | 76 to 100 | 51 to 75 | 5 to 10 | 76 to 100 | 51 to 75 | 51 to 75 | 51 to 75 | 76 to 100 | 51 to 75 | 76 to 100 | 51 to 75 |  | CO[C@H]1CN(c2nc(-c3nccn3C)nc3sc(-c4ccn(C(C)C)n4)c(C)c23)C[C@H]1OC [Compound 39, rac-4-((3S,4R)-3,4-Dimethoxypyrrolidin-1-yl)-6-(1-isopropyl-1H-pyrazol-3-yl)-5-methyl-2-(1-methyl-1H-imidazol-2-yl)thieno[2,3-d]pyrimidine] | 76 to 100
0 | 1 to 25 | 0 | 1 to 25 | > 10 | 1 to 25 | 0 | 0 | 0 | 0 | 0 | 0 | 1 to 25 | > 10 | CO[C@H]1C[C@@H](Nc2nc(-c3nccn3C)nc3sc(-c4ccn(C(C)C)n4)c(C)c23)C1 [Compound 96, 6-(1-isopropyl-1H-pyrazol-3-yl)-N-((1s,3s)-3-methoxycyclobutyl)-5-methyl-2-(1-methyl-1H-imidazol-2-yl)thieno[2,3-d]pyrimidin-4-amine] | 1 to 25
76 to 100 | 51 to 75 | 51 to 75 | 1 to 25 | < 1 | 51 to 75 | 26 to 50 | 51 to 75 |  | 51 to 75 | 76 to 100 |  |  |  | Cc1c(-c2ccn(C(C)C)n2)sc2nc(-c3nccn3C)nc(N3CCC(COC(C)C)C3)c12 (racemic) [Compound 62, rac-4-(3-(Isopropoxymethyl)pyrrolidin-1-yl)-6-(1-isopropyl-1H-pyrazol-3-yl)-5-methyl-2-(1-methyl-1H-imidazol-2-yl)thieno[2,3-d]pyrimidine] | 76 to 100
51 to 75 | 51 to 75 | 76 to 100 | 76 to 100 | 1 to 4.99 | 76 to 100 | 76 to 100 | 51 to 75 | 51 to 75 | 51 to 75 | 76 to 100 |  |  |  | CCOCCn1ccnc1-c1nc(O)c2scc(-c3ccccn3)c2n1 [Compound 80, 2-(1-(2-Ethoxyethyl)-1H-imidazol-2-yl)-7-(pyridin-2-yl)thieno[3,2-d]pyrimidin-4-ol] | 76 to 100
1 to 25 | 1 to 25 | 0 | 0 | > 10 | 0 | 1 to 25 | 1 to 25 | 1 to 25 | 0 | 1 to 25 | 1 to 25 | 1 to 25 | > 10 | CO[C@H]1CC[C@@H](Nc2nc(C(=O)N3CCOCC3)nc3sccc23)C1 (racemic) [Compound 12, Rac-(4-(((1R,3S)-3-methoxycyclopentyl)amino)thieno[2,3-d]pyrimidin-2-yl)(morpholino)methanone] | 1 to 25
